Test results taken from paper PMC10967730, “Identification and Functional Validation of Two Novel Antioxidant Peptides in Saffron” (Antioxidants, 2024).
Ends that are not written are not given here.

Key:
HepG2 cells = test: MTT cell viability of HepG2 cells; details: for Effect on the viability of HepG2 cells: MTT, peptide 0.01–0.1 mg/mL
Description: The HepG2 cells were cultured in DMEM (Gibco, New York, NY, USA) containing 10% (v/v) fetal bovine serum (HyClone, Logan, UT, USA) and 1% (v/v) penicillin/streptomycin (Gibco, New York, NY, USA) at 37 °C and 5% CO2.
The cells were passaged every 2 days, with a passage ratio of 1:2 when the cells grew to more than 80% confluence. Then, the HepG2 cells were distributed in 96-well culture plates at a density of 2.5 × 10^4 cells per well. When the cells were cultured for 24 h in DMEM medium, the medium was removed and replaced with a new medium containing various concentrations of H2O2 (100 mM, 300 mM, 500 mM, 700 mM, 900 mM, and 1100 mM), and the control cells were grown in DMEM. MTT (3-(4,5-dimethylthiazol2-yl)-2,5-diphenyltetrazolium bromide; Sigma-Aldrich, St. Louis, MO, USA) was added to the wells and the cells were incubated for 2 h at 37 °C. Then, DMSO was added to the wells for dissolution of formazan granules produced by the live cells and the absorbance measurements were performed at 540 nm to ensure the half inhibitory concentration (IC50) of H2O2 [30].
The safe and harmless peptide concentrations were also determined by the above method. Different concentrations of peptides (0.01 mg/mL, 0.02 mg/mL, 0.04 mg/mL, 0.06 mg/mL, 0.08 mg/mL, and 0.1 mg/mL) also act on cells, and cell viability was detected by MTT to screen out the safe and harmless peptide concentrations.

[1] = cited from earlier work
Description: Subsequently, the ABTS method was utilized to determine the total antioxidant activity of the stigma protein. […] We screened 289 saffron antioxidant peptides by comparing with the BIOPEP database. Among them, the saffron peptides with high abundance in the range from tetrapeptide to decapeptide were selected. […] It has been reported that hydrophobic a ...

Molecule: OO [H2O2]
- Cell viability decline (HepG2 cells; HepG2, MTT, H2O2 300 mM): about 50%

Molecule: N[C@@H](Cc1ccccc1)C(=O)O [Phe]
- Concentration at which ABTS scavenging activity is shown [1]: 10^−3 mol/L

Molecule: DGGSDYLGK [DGGSDYLGK]
- Effect on the viability of HepG2 cells (HepG2 cells): no significant effects

Molecule: VDPYFNK [VDPYFNK]
- Effect on the viability of HepG2 cells (HepG2 cells): no significant effects
